Measurements from US8449898B2 (priority 2007, dated 2013).
Read-outs that look alike come from different tables or passages of the source.

Experiments:
[1] = tested on: Pseudoperonospora cubensis (the causal agent of cucumber downy mildew); assay: Test B: cucumber downy mildew, preventive spray on cucumber seedlings; format: in vivo; details: for pest or weed control at 0.4 ppm / pest or weed control at 2 ppm / pest or weed control at 10 ppm / pest or weed control at 40 ppm / pest or weed control at 200 ppm / pest or weed control at 0.4 µg/mL / pest or weed control at 2 µg/mL / pest or weed control at 10 µg/mL / pest or weed control at 40 µg/mL / pest or weed control at 200 µg/mL / pest or weed control at 0.04 ppm: Pseudoperonospora cubensis; for CDM Obsd (disease control rating): Table B
[2] = tested on: Phytophthora infestans (the causal agent of tomato late blight); assay: whole plant or invertebrate; format: in vivo; details: for pest or weed control at 0.4 ppm / pest or weed control at 2 ppm / pest or weed control at 10 ppm / pest or weed control at 40 ppm / pest or weed control at 200 ppm / pest or weed control at 0.04 ppm: Phytophthora infestans; for TLB Obsd (observed effect, tomato late blight): component (b) alone; for TLB Obsd (disease control rating): Table B
[3] = Table C, component (b) alone 0.4 ppm, read-out: CDM Obsd (disease control rating)
[4] = Table C, component (b) alone 2 ppm, read-out: CDM Obsd (disease control rating)
[5] = Table C, component (b) alone 10 ppm, read-out: CDM Obsd (disease control rating)
[6] = Table C, component (b) alone 40 ppm, read-out: CDM Obsd (disease control rating)
[7] = Table C, component (b) alone 200 ppm, read-out: CDM Obsd (disease control rating)
[8] = component (b) alone 0.4 ppm (Compound 1 0 ppm), read-out: CDM Obsd
[9] = component (b) alone 2 ppm (Compound 1 0 ppm), read-out: CDM Obsd
[10] = component (b) alone 10 ppm (Compound 1 0 ppm), read-out: CDM Obsd
[11] = component (b) alone 40 ppm (Compound 1 0 ppm), read-out: CDM Obsd
[12] = component (b) alone 200 ppm (Compound 1 0 ppm), read-out: CDM Obsd
[13] = read-out: TLB Obsd (disease control rating), Table C, component (b) alone 0.4 ppm
[14] = read-out: TLB Obsd (disease control rating), Table C, component (b) alone 2 ppm
[15] = read-out: TLB Obsd (disease control rating), Table C, component (b) alone 10 ppm
[16] = read-out: TLB Obsd (disease control rating), Table C, component (b) alone 40 ppm
[17] = read-out: TLB Obsd (disease control rating), Table C, component (b) alone 200 ppm
[18] = Table D, component (b) alone at 10 ppm
[19] = Table D, component (b) alone at 40 ppm
[20] = Table D, component (b) alone at 200 ppm
[21] = Table D, component (b) alone at 1000 ppm
[22] = Table D, component (b) alone at 2000 ppm
[23] = component (b) alone 10 ppm (Compound 1 0 ppm)
[24] = component (b) alone 40 ppm (Compound 1 0 ppm)

Molecule O=C1c2ccccc2C(=O)N1SC(Cl)(Cl)Cl [folpet] has a pest or weed control at 0.4 ppm [1, 3] of 47%, a pest or weed control at 2 ppm [1, 4] of 47% and a pest or weed control at 10 ppm [1, 5] of 47%. The pest or weed control at 40 ppm [1, 6] was 92%, the pest or weed control at 200 ppm [1, 7] was 95% and the pest or weed control at 0.4 µg/mL [1, 8] was 47%. For the same molecule, the pest or weed control at 2 µg/mL [1, 9] was 47%, the pest or weed control at 10 µg/mL [1, 10] was 47% and the pest or weed control at 40 µg/mL [1, 11] was 47%. It also gave a pest or weed control at 200 µg/mL [1, 12] of 88%, a pest or weed control at 0.04 ppm ([1]; component (b) alone, read-out: CDM Obsd (observed effect, cucumber downy mildew)) of 0% and a pest or weed control at 2 ppm ([1]; component (b) alone, 2 ppm, read-out: CDM Obsd (observed effect, cucumber downy mildew)) of 0%. The pest or weed control at 10 ppm ([1]; component (b) alone, 10 ppm, read-out: CDM Obsd (observed effect, cucumber downy mildew)) was 44%, the pest or weed control at 40 ppm ([1]; component (b) alone, 40 ppm, read-out: CDM Obsd (observed effect, cucumber downy mildew)) was 74% and the pest or weed control at 200 ppm ([1]; component (b) alone, 200 ppm, read-out: CDM Obsd (observed effect, cucumber downy mildew)) was 87%. For the same molecule, the pest or weed control at 0.4 ppm [2, 13] was 0%, the pest or weed control at 2 ppm [2, 14] was 9% and the pest or weed control at 10 ppm [2, 15] was 9%. For the same molecule, the pest or weed control at 40 ppm [2, 16] was 24%, the pest or weed control at 200 ppm [2, 17] was 75% and the pest or weed control at 0.04 ppm ([2]; read-out: TLB Obsd (observed effect, tomato late blight), component (b) alone, 0.04 ppm) was 0%. It also gave a pest or weed control at 2 ppm ([2]; read-out: TLB Obsd (observed effect, tomato late blight), component (b) alone, 2 ppm) of 8%, a pest or weed control at 10 ppm ([2]; read-out: TLB Obsd (observed effect, tomato late blight), component (b) alone, 10 ppm) of 31% and a pest or weed control at 40 ppm ([2]; read-out: TLB Obsd (observed effect, tomato late blight), component (b) alone, 40 ppm) of 46%. It also gave a pest or weed control at 200 ppm ([2]; read-out: TLB Obsd (observed effect, tomato late blight), component (b) alone, 200 ppm) of 93%.

For CCO[PH](=O)O [fosetyl-aluminum], the “CDM Obsd” value [1, 18] was 47%, the “CDM Obsd” value [1, 19] was 47% and the “CDM Obsd” value [1, 20] was 47%. The “CDM Obsd” value [1, 21] was 98%, the “CDM Obsd” value [1, 22] was 100% and the “CDM Obsd” value [1, 23] was 47%. The “CDM Obsd” value [1, 24] was 47%, the “CDM Obsd” value ([1]; component (b) alone 200 ppm (Compound 1 0 ppm)) was 63% and the “CDM Obsd” value ([1]; component (b) alone 1000 ppm (Compound 1 0 ppm)) was 98%. For the same molecule, the “CDM Obsd” value ([1]; component (b) alone 2000 ppm (Compound 1 0 ppm)) was 100%, the “CDM Obsd (observed effect, cucumber downy mildew)” value ([1]; component (b) alone, 10 ppm) was 0 and the “CDM Obsd (observed effect, cucumber downy mildew)” value ([1]; component (b) alone, 40 ppm) was 0. The “CDM Obsd (observed effect, cucumber downy mildew)” value ([1]; component (b) alone, 200 ppm) was 0, the “CDM Obsd (observed effect, cucumber downy mildew)” value ([1]; component (b) alone, 1000 ppm) was 68 and the “CDM Obsd (observed effect, cucumber downy mildew)” value ([1]; component (b) alone, 2000 ppm) was 73. For the same molecule, the “TLB Obsd” value [2, 18] was 0%, the “TLB Obsd” value [2, 19] was 20% and the “TLB Obsd” value [2, 20] was 65%. The “TLB Obsd” value [2, 21] was 97%, the “TLB Obsd” value [2, 22] was 100% and the “TLB Obsd (observed effect, tomato late blight)” value ([2]; 10 ppm) was 0. The “TLB Obsd (observed effect, tomato late blight)” value ([2]; 40 ppm) was 0, the “TLB Obsd (observed effect, tomato late blight)” value ([2]; 200 ppm) was 50 and the “TLB Obsd (observed effect, tomato late blight)” value ([2]; 1000 ppm) was 99. For the same molecule, the “TLB Obsd (observed effect, tomato late blight)” value ([2]; 2000 ppm) was 100.

For Cc1ccc(C(C)NC(=O)[C@@H](NC(=O)OC(C)C)C(C)C)cc1 (stereo partly drawn) [iprovalicarb], the “CDM Obsd (disease control rating)” value ([1]; component (b) alone 0.08 ppm) was 47%, the “CDM Obsd (disease control rating)” value ([1]; component (b) alone 0.4 ppm) was 57% and the “CDM Obsd (disease control rating)” value ([1]; component (b) alone 2 ppm) was 77%. The “CDM Obsd (disease control rating)” value ([1]; component (b) alone 10 ppm) was 100%, the “CDM Obsd (disease control rating)” value ([1]; component (b) alone 40 ppm) was 100% and the “CDM Obsd” value ([1]; component (b) alone 0.08 ppm (Compound 1 0 ppm)) was 26%. For the same molecule, the “CDM Obsd” value ([1]; component (b) alone 0.4 ppm (Compound 1 0 ppm)) was 26%, the “CDM Obsd” value ([1]; component (b) alone 2 ppm (Compound 1 0 ppm)) was 26% and the “CDM Obsd” value [1, 23] was 88%. The “CDM Obsd” value [1, 24] was 100%, the “CDM Obsd (observed effect, cucumber downy mildew)” value ([1]; component (b) alone, 0.08 ppm) was 0 and the “CDM Obsd (observed effect, cucumber downy mildew)” value ([1]; component (b) alone, 0.4 ppm) was 0. For the same molecule, the “CDM Obsd (observed effect, cucumber downy mildew)” value ([1]; component (b) alone, 2 ppm) was 0, the “CDM Obsd (observed effect, cucumber downy mildew)” value ([1]; component (b) alone, 10 ppm) was 99 and the “CDM Obsd (observed effect, cucumber downy mildew)” value ([1]; component (b) alone, 40 ppm) was 100. The “TLB Obsd (disease control rating)” value ([2]; component (b) alone 0.08 ppm) was 0%, the “TLB Obsd (disease control rating)” value ([2]; component (b) alone 0.4 ppm) was 9% and the “TLB Obsd (disease control rating)” value ([2]; component (b) alone 2 ppm) was 39%. For the same molecule, the “TLB Obsd (disease control rating)” value ([2]; component (b) alone 10 ppm) was 99%, the “TLB Obsd (disease control rating)” value ([2]; component (b) alone 40 ppm) was 100% and the “TLB Obsd (observed effect, tomato late blight)” value ([2]; 0.08 ppm) was 0. The “TLB Obsd (observed effect, tomato late blight)” value ([2]; 0.4 ppm) was 21, the “TLB Obsd (observed effect, tomato late blight)” value ([2]; 2 ppm) was 74 and the “TLB Obsd (observed effect, tomato late blight)” value ([2]; 10 ppm) was 98. The “TLB Obsd (observed effect, tomato late blight)” value ([2]; 40 ppm) was 100.

Molecule CO/N=C(/C(=O)OC)c1ccccc1COc1ccccc1C [kresoxim-methyl] has a pest or weed control at 0.4 ppm [1, 3] of 47%, a pest or weed control at 2 ppm [1, 4] of 47% and a pest or weed control at 10 ppm [1, 5] of 53%. The pest or weed control at 40 ppm [1, 6] was 57%, the pest or weed control at 200 ppm [1, 7] was 100% and the pest or weed control at 0.4 µg/mL [1, 8] was 47%. For the same molecule, the pest or weed control at 2 µg/mL [1, 9] was 47%, the pest or weed control at 10 µg/mL [1, 10] was 47% and the pest or weed control at 40 µg/mL [1, 11] was 99%. It also gave a pest or weed control at 200 µg/mL [1, 12] of 100%, a pest or weed control at 0.04 ppm ([1]; component (b) alone, read-out: CDM Obsd) of 9% and a pest or weed control at 2 ppm ([1]; component (b) alone, 2 ppm, read-out: CDM Obsd) of 9%. The pest or weed control at 10 ppm ([1]; component (b) alone, 10 ppm, read-out: CDM Obsd) was 30%, the pest or weed control at 40 ppm ([1]; component (b) alone, 40 ppm, read-out: CDM Obsd) was 37% and the pest or weed control at 200 ppm ([1]; component (b) alone, 200 ppm, read-out: CDM Obsd) was 100%. It also gave a pest or weed control at 0.4 ppm [2, 13] of 9%, a pest or weed control at 2 ppm [2, 14] of 33% and a pest or weed control at 10 ppm [2, 15] of 80%. For the same molecule, the pest or weed control at 40 ppm [2, 16] was 99%, the pest or weed control at 200 ppm [2, 17] was 99% and the pest or weed control at 0.04 ppm ([2]; read-out: TLB Obsd, component (b) alone, 0.04 ppm) was 8%. For the same molecule, the pest or weed control at 2 ppm ([2]; read-out: TLB Obsd, component (b) alone, 2 ppm) was 32%, the pest or weed control at 10 ppm ([2]; read-out: TLB Obsd, component (b) alone, 10 ppm) was 86% and the pest or weed control at 40 ppm ([2]; read-out: TLB Obsd, component (b) alone, 40 ppm) was 96%. It also gave a pest or weed control at 200 ppm ([2]; read-out: TLB Obsd, component (b) alone, 200 ppm) of 100%.

In the case of C#CCOc1ccc(CCNC(=O)C(OCC#C)c2ccc(Cl)cc2)cc1OC (stereo not drawn) [mandipropamid], the “CDM Obsd” value ([1]; Table F, component (b) alone at 0.016 ppm) is reported as 33%, the “CDM Obsd” value ([1]; Table F, component (b) alone at 0.08 ppm) is reported as 97% and the “CDM Obsd” value ([1]; Table F, component (b) alone at 0.4 ppm) is reported as 100%. For the same molecule, the “CDM Obsd” value ([1]; Table F, component (b) alone at 2 ppm) was 100%, the “CDM Obsd” value ([1]; Table F, component (b) alone at 10 ppm) was 100% and the “CDM Obsd (observed effect, cucumber downy mildew)” value ([1]; component (b) alone, 0.08 ppm) was 86. The “CDM Obsd (observed effect, cucumber downy mildew)” value ([1]; component (b) alone, 0.4 ppm) was 100, the “CDM Obsd (observed effect, cucumber downy mildew)” value ([1]; component (b) alone, 2 ppm) was 100 and the “CDM Obsd (observed effect, cucumber downy mildew)” value ([1]; component (b) alone, 10 ppm) was 100. The “CDM Obsd (observed effect, cucumber downy mildew)” value ([1]; component (b) alone, 40 ppm) was 100, the “TLB Obsd” value ([2]; Table E, component (b) alone at 0.016 ppm) was 26% and the “TLB Obsd” value ([2]; Table E, component (b) alone at 0.08 ppm) was 33%. The “TLB Obsd” value ([2]; Table E, component (b) alone at 0.4 ppm) was 88%, the “TLB Obsd” value ([2]; Table E, component (b) alone at 2 ppm) was 100% and the “TLB Obsd” value ([2]; Table E, component (b) alone at 10 ppm) was 100%. The “TLB Obsd (observed effect, tomato late blight)” value ([2]; 0.08 ppm) was 80, the “TLB Obsd (observed effect, tomato late blight)” value ([2]; 0.4 ppm) was 97 and the “TLB Obsd (observed effect, tomato late blight)” value ([2]; 2 ppm) was 99. For the same molecule, the “TLB Obsd (observed effect, tomato late blight)” value ([2]; 10 ppm) was 100 and the “TLB Obsd (observed effect, tomato late blight)” value ([2]; 40 ppm) was 100.
